Assay results reported in patent US20110104173A1, “INHIBITION OF DEGRADATION OF EXTRACELLULAR MATRIX” (The Australian National University, priority 2006, published 2011).

Tests used:
[1] = test system: prediabetic adult female NOD/Lt mice; assay: PI-88 treatment of prediabetic NOD/Lt mice, onset of autoimmune diabetes; format: in vivo, mouse; conditions: PI-88 10 mg/kg/day i.p. from 10.5 weeks of age, vs saline controls
Text: FIG. 3: PI-88 treatment prevents development of autoimmune diabetes in NOD/Lt mice. […] The incidence of diabetes in the holding female NOD/Lt mouse colony of the inventors is 60%.
Studies conducted by the inventors have shown that heparanase transcripts are increased 7-fold in prediabetic and diabetes-onset NOD mice, compared to neonatal NOD mice; only background levels were detected in normal CBA/H mice (see TABLE 1).

[2] = test system: lipopolysaccharride (LPS)-induced inflammation; conditions: in vivo treatment, rodents; cited from earlier work
[3] = test system: BALB/c (H-2d) islet allografts in CBA/H (H-2k) mice; assay: BALB/c islet allograft survival in CBA/H mice; format: in vivo, mouse; conditions: 7 days post-transplant, PI-88 treated recipient vs control
Text: HS plays a critical role in maintaining the integrity and survival of islets and islet beta cells. […] It is therefore possible that heparanase also plays an important role in the immunological destruction of islet allografts (even in the absence of autoimmune attack). […] Heparanase inhibitors therefore represent an anti-rejection strategy for islet transplants in allogeneic hosts and have the capacity to protect grafted islets from both alloimmune and autoimmune attack.

[4] = test system: NODscid islet isografts in diabetic NOD/Lt female mice; assay: NODscid islet isografts in diabetic NOD/Lt mice, recurrence of autoimmune disease; format: in vivo, mouse
Text: FIG. 8: (a) PI-88 therapy prevents disease recurrence in islet isografts. Isografts of 450-500 female NODscid islets transplanted beneath the kidney capsule of diabetic NOD/Lt female mice return non-fasting blood glucose levels to the normal range (shaded region defines the normal range). Without further treatment in a control recipient (circles), hyperglycemia returned from day 3. In contrast, an NODscid islet isograft maintains normoglycemia for up to 14 days in a diabetic NOD mouse treated with PI-88 (10 mg/kg/day i.p.) from day 3 (squares).
Consequently in vivo treatment of transplanted mice with PI-88 should prevent islet allograft rejection, disease recurrence in islet isografts (see FIG. 8) and facilitate the survival and function of islet allografts in diabetic NOD/Lt mice. To assess whether PI-88 therapy is graft-protective, NODscid islets were transplanted to autoimmune diabetic NOD mice 400-500 islets/graft. The mice were treated with PI-88 (10 mg/kg/day) i.p. from day 3 post-transplant (after graft revascularisation). Control transplanted mice were treated with saline. Graft function was monitored by measurement of non-fasting blood glucose levels (using a glucometer (MediSense 2)) 2-3×/week.

BALB/c islet beta cells = assay: Islet beta cell survival in vitro after heparitinase treatment; format: cell-based, mouse; conditions: 5-50 μg/ml heparin in culture, P<0.0001
Text: FIG. 9: Isolated islets dispersed into single cells are predominantly insulin-producing beta cells, as confirmed by immunofluorescence. In contrast to control islet cells that remained intact over a 2 day culture period, beta cells treated for 1 hr with bacterial heparitinases (heparinases) (I+II+III; 0.25 U/ml) died (a). Placement of treated cells on an ECM (produced in vitro by a cell line) was able to largely rescue the beta cells from heparitinase-induced cell death (a).
In vitro studies were undertaken to further validate this concept. Isolated BALB/c islets dispersed into single cells using Dispase (1 mg/ml) consist predominantly of insulin-producing beta cells, as confirmed by immunofluorescence. […] Placement of treated cells on an ECM (produced in vitro by a cell line) was able to largely rescue the beta cells from heparitinase-induced cell death (P<0.0001) (FIG. 9(a)). These findings indicate that islet beta cells need cell-associated HS to survive. […] Islet beta cells therefore require cell-associated HS to remain viable and healthy.

skin allograft = conditions: heparins exhibiting some anti-heparanase activity, mice; cited from earlier work

Substance | onset of clinical diabetes [1] | LPS-induced inflammation [2] | leukocyte behaviour by intra-vital microscopy [2] | islet allograft histology [3] | time normoglycemia (non-fasting blood glucose) maintained by islet isograft ([4]; PI-88 10 mg/kg/day i.p. from day 3 post-transplant, control hyperglycemic from day 3) | isograft histology at harvest (hematoxylin and eosin) ([4]; PI-88-treated mouse, control isograft showed aggressive autoimmune destruction) | rescue of heparitinase-treated beta cells from cell death (BALB/c islet beta cells) | skin allograft survival (skin allograft)
PI-88 | prevents the onset of clinical diabetes in mice up to 24 weeks of age | prevented | leukocyte rolling and adherence to the vascular BM but no extravasation | better preservation of the engrafted allogeneic islets | up to 14 days | revascularised islets |  | 
heparin |  |  |  |  |  |  | efficiently rescued | prolonged skin allograft survival
